This passage reports IC50 results from patent US12336981B2, “Compounds and compositions for the inhibition of NAMPT” (Valo Health, Inc., priority 2010, dated 2025).

In one experiment the target is T1, NAMPT (Homo sapiens, UniProt P43490).
T1 construct: His tag; host or cells: E. coli
The experiment in a line: Biochemical inhibition assay: NAMPT enzymatic reaction, NMN quantified by mass spectrometry. The following applies: read-out: Biochem IC50. The method in brief: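 Inhibition of E. coli-expressed His-tagged human NAMPT, measured as NMN formation by mass spectrometry after a 30 min room-temperature reaction containing 1 μM NAM, 100 μM PRPP and 2.5 mM ATP.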

A further experiment deals with A2780 cells. The experiment in a line: In-vitro cell proliferation assay (SRB), A2780 cells. Format: cell-based. Conditions: Homo sapiens, A2780, 72 h, A2780 cells, 72 hours, read-out: A2780 IC50. The method in brief:
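Read-out is SRB absorbance at 570 nm on TCA-fixed cells after 72 hours of compound treatment at 37° C. in 5% CO2. Background from a media-only plate is subtracted, and % inhibition is interpolated between two tested concentrations.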

Where two headings read alike, the source gives them in different places.

T1 sequence (P43490 whole entry): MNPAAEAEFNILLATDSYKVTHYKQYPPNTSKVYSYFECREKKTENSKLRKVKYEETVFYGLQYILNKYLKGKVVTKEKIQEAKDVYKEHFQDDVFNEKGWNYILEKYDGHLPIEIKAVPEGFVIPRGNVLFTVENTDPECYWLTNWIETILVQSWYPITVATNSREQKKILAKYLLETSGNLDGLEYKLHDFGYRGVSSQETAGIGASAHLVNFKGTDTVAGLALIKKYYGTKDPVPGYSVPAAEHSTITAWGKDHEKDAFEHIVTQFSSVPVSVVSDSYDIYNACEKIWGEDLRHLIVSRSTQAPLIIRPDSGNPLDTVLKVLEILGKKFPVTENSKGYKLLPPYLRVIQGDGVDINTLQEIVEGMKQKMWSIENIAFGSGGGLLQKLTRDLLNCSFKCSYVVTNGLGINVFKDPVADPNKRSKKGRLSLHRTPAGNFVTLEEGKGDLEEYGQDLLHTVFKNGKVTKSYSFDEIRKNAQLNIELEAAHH

On to `Cn1c(S(=O)(=O)c2ccc(CNC(=O)c3cc4ccncc4s3)cc2)cc2ccccc21` [N-{[4-(1-methyl-1H-indole-2-sulfonyl)phenyl]methyl}thieno[2,3-c]pyridine-2-carboxamide], for which the IC50 was 5.2 nM on NAMPT (NAMPT enzymatic assay) and 3.4 nM in the experiment with A2780 cells (SRB).
Taken in the same sequence, the figures for `Cn1cc(S(=O)(=O)c2ccc(CNC(=O)c3cnc4[nH]ncc4c3)cc2)cn1` [N-{[4-(1-methyl-1H-pyrazole-4-sulfonyl)phenyl]methyl}-1H-pyrazolo[3,4-b]pyridine-5-carboxamide] were 182 nM and 100 to 1000 nM.
Consider `Cn1cc(S(=O)(=O)c2ccc(CNC(=O)c3cc4cnccc4[nH]3)cc2)cn1` [N-{[4-(1-methyl-1H-pyrazole-4-sulfonyl)phenyl]methyl}-1H-pyrrolo[3,2-c]pyridine-2-carboxamide], for which the figures for the IC50 on NAMPT (NAMPT enzymatic reaction) and with A2780 cells (SRB assay) were 48 nM and 123 nM, respectively.
With `Cn1cc(S(=O)(=O)c2ccc(CNC(=O)c3cc4ccncc4o3)cc2)cn1` [N-{[4-(1-methyl-1H-pyrazole-4-sulfonyl)phenyl]methyl}furo[2,3-c]pyridine-2-carboxamide], the values for the IC50 at NAMPT (NAMPT enzymatic assay) and in the experiment on A2780 cells (SRB) were 16.8 nM and 65.4 nM, respectively.
Taken in the same sequence, the figures for `Cn1cc(S(=O)(=O)c2ccc(CNC(=O)c3cnc4nccn4c3)cc2)cn1` [N-{[4-(1-methyl-1H-pyrazole-4-sulfonyl)phenyl]methyl}imidazo[1,2-a]pyrimidine-6-carboxamide] were 8.2 nM and 100 to 1000 nM.
Consider `CCCn1cc(S(=O)(=O)c2ccc(CNC(=O)c3cnc4[nH]ncc4c3)cc2)cn1` [N-{[4-(1-propyl-1H-pyrazole-4-sulfonyl)phenyl]methyl}-1H-pyrazolo[3,4-b]pyridine-5-carboxamide], for which the IC50 amounted to 8 nM on NAMPT (NAMPT enzymatic assay) and 7 nM in the experiment on A2780 cells (SRB).
Taken in the same sequence, the figures for `CCCn1cc(S(=O)(=O)c2ccc(CNC(=O)c3cc4cnccc4[nH]3)cc2)cn1` [N-{[4-(1-propyl-1H-pyrazole-4-sulfonyl)phenyl]methyl}-1H-pyrrolo[3,2-c]pyridine-2-carboxamide] were 14.9 nM and 5.9 nM.
For the molecule `CCCn1cc(S(=O)(=O)c2ccc(CNC(=O)c3ccc4nccn4c3)cc2)cn1` [N-{[4-(1-propyl-1H-pyrazole-4-sulfonyl)phenyl]methyl}imidazo[1,2-a]pyridine-6-carboxamide], the IC50 at NAMPT (NAMPT enzymatic assay) came out at 4.9 nM; in the experiment with A2780 cells (SRB) it was 5.2 nM.
Taken in the same sequence, the figures for `CCCn1cc(S(=O)(=O)c2ccc(CNC(=O)c3cc4ccncc4s3)cc2)cn1` [N-{[4-(1-propyl-1H-pyrazole-4-sulfonyl)phenyl]methyl}thieno[2,3-c]pyridine-2-carboxamide] were 1.9 nM and 1.6 nM.
`O=C(NCc1ccc(S(=O)(=O)c2cccc3cc[nH]c23)cc1)c1cc2ccncc2s1` [N-{[4-(1H-indole-7-sulfonyl)phenyl]methyl}thieno[2,3-c]pyridine-2-carboxamide]: the IC50 on NAMPT (NAMPT enzymatic reaction) stood at 3 nM; with A2780 cells (SRB assay) it was 2.7 nM.
With `O=C(NCc1ccc(S(=O)(=O)c2ccc3c(c2)OCCO3)cc1)c1cc2ccncc2o1` [N-{[4-(2,3-dihydro-1,4-benzodioxine-6-sulfonyl)phenyl]methyl}furo[2,3-c]pyridine-2-carboxamide], the IC50 at NAMPT (NAMPT enzymatic assay) was found to be 5.5 nM; with A2780 cells (SRB), 6.2 nM.
Taken in the same sequence, the figures for `O=C(NCc1ccc(S(=O)(=O)c2ccc3c(c2)OCCO3)cc1)c1cnc2nccn2c1` [N-{[4-(2,3-dihydro-1,4-benzodioxine-6-sulfonyl)phenyl]methyl}imidazo[1,2-a]pyrimidine-6-carboxamide] were 0.2 nM and 0.5 nM.
Turning to `O=C(NCc1ccc(S(=O)(=O)c2ccc3c(c2)OCCO3)cc1)c1cc2ccncc2s1` [N-{[4-(2,3-dihydro-1,4-benzodioxine-6-sulfonyl)phenyl]methyl}thieno[2,3-c]pyridine-2-carboxamide], the half-inhibitory concentration (IC50) on NAMPT (NAMPT enzymatic reaction) was found to be 4 nM; in the experiment with A2780 cells (SRB assay), 2.7 nM.
For the molecule `O=C(NCc1ccc(S(=O)(=O)c2cccc3c2OCC3)cc1)c1cc2cnccc2[nH]1` [N-{[4-(2,3-dihydro-1-benzofuran-7-sulfonyl)phenyl]methyl}-1H-pyrrolo[3,2-c]pyridine-2-carboxamide], the figures for the IC50 on NAMPT (NAMPT enzymatic assay) and with A2780 cells (SRB) were 14 nM and 3.8 nM, respectively.
Taken in the same sequence, the figures for `O=C(NCc1ccc(S(=O)(=O)c2cccc3c2OCC3)cc1)c1cc2ccncc2o1` [N-{[4-(2,3-dihydro-1-benzofuran-7-sulfonyl)phenyl]methyl}furo[2,3-c]pyridine-2-carboxamide] were 6 nM and 7.1 nM.
Taken in the same sequence, the figures for `O=C(NCc1ccc(S(=O)(=O)c2cccc3c2OCC3)cc1)c1ccc2nccn2c1` [N-{[4-(2,3-dihydro-1-benzofuran-7-sulfonyl)phenyl]methyl}imidazo[1,2-a]pyridine-6-carboxamide] were 12.5 nM and 6.4 nM.
Taken in the same sequence, the figures for `O=C(NCc1ccc(S(=O)(=O)c2cccc3c2OCC3)cc1)c1cnc2nccn2c1` [N-{[4-(2,3-dihydro-1-benzofuran-7-sulfonyl)phenyl]methyl}imidazo[1,2-a]pyrimidine-6-carboxamide] were 2.1 nM and 25.8 nM.
Turning to `O=C(NCc1ccc(S(=O)(=O)c2cccc3c2OCC3)cc1)c1cc2ccncc2s1` [N-{[4-(2,3-dihydro-1-benzofuran-7-sulfonyl)phenyl]methyl}thieno[2,3-c]pyridine-2-carboxamide], the IC50 on NAMPT (NAMPT enzymatic assay) is 2.2 nM; in the experiment with A2780 cells (SRB), 3 nM.
Take `COc1ccc(S(=O)(=O)c2ccc(CNC(=O)c3cnc4[nH]ncc4c3)cc2)c(OC)n1` [N-{[4-(2,6-dimethoxypyridine-3-sulfonyl)phenyl]methyl}-1H-pyrazolo[3,4-b]pyridine-5-carboxamide]: the values for the IC50 at NAMPT (NAMPT enzymatic assay) and in the experiment with A2780 cells (SRB) were 30.7 nM and 2 nM, respectively.
In the case of `COc1ccc(S(=O)(=O)c2ccc(CNC(=O)c3cc4ccncc4o3)cc2)c(OC)n1` [N-{[4-(2,6-dimethoxypyridine-3-sulfonyl)phenyl]methyl}furo[2,3-c]pyridine-2-carboxamide], the values for the IC50 at NAMPT (NAMPT enzymatic assay) and in the experiment with A2780 cells (SRB) were 6.6 nM and 11 nM, respectively.
Taken in the same sequence, the figures for `COc1ccc(S(=O)(=O)c2ccc(CNC(=O)c3ccc4nccn4c3)cc2)c(OC)n1` [N-{[4-(2,6-dimethoxypyridine-3-sulfonyl)phenyl]methyl}imidazo[1,2-a]pyridine-6-carboxamide] were 43.3 nM and 9.2 nM.
Taken in the same sequence, the figures for `Cc1nc(S(=O)(=O)c2ccc(CNC(=O)c3cnc4[nH]ncc4c3)cc2)cs1` [N-{[4-(2-methyl-1,3-thiazole-4-sulfonyl)phenyl]methyl}-1H-pyrazolo[3,4-b]pyridine-5-carboxamide] were 82.8 nM and 20.7 nM.
For `Cc1nc(S(=O)(=O)c2ccc(CNC(=O)c3cc4ccncc4o3)cc2)cs1` [N-{[4-(2-methyl-1,3-thiazole-4-sulfonyl)phenyl]methyl}furo[2,3-c]pyridine-2-carboxamide], the IC50 on NAMPT (NAMPT enzymatic assay) came to 36.7 nM; in the experiment on A2780 cells (SRB), 69 nM.
Take `Cc1nc(S(=O)(=O)c2ccc(CNC(=O)c3cnc4nccn4c3)cc2)cs1` [N-{[4-(2-methyl-1,3-thiazole-4-sulfonyl)phenyl]methyl}imidazo[1,2-a]pyrimidine-6-carboxamide]: the IC50 on NAMPT (NAMPT enzymatic assay) was 28.6 nM; in the experiment with A2780 cells (SRB), 1000 to 10000 nM.
Taken in the same sequence, the figures for `Cn1cc2cc(S(=O)(=O)c3ccc(CNC(=O)c4ccc5nccn5c4)cc3)ccc2n1` [N-{[4-(2-methyl-2H-indazole-5-sulfonyl)phenyl]methyl}imidazo[1,2-a]pyridine-6-carboxamide] were 13.3 nM and 5.8 nM.

As usually defined, the IC50 is the concentration needed to halve the response being measured.
